For assay [1], the system named is A2780 ovarian cells. The assay is described as follows: A2780 ovarian cell proliferation assay in lipid reduced medium, without palmitate (MTT). It is filed as cell-based. Particulars: Homo sapiens, A2780, 96 h; read-out: pIC50 A2780 Ovarian Cell, Without Palmitate (converted).
For assay [2], the system named is LNCaP-Vancouver prostate cells. The assay is described as follows: In vitro LNCaP Vancouver prostate cell proliferation assay in lipid reduced medium. It is filed as cell-based. Particulars: read-out: pIC50 LNCaP_Vancouver prostate cell (converted).
Assay [3] concerns the target T1, hFASN enzyme (full length) (Homo sapiens, UniProt P49327).
T1 construct: 10 μL hFASN enzyme (full length, 300 ng, purified in house); made in house
Description: Fatty Acid Synthase (FASN) inhibition scintillation proximity assay. Particulars: for inhibition at 10 µM: read-out: Human FASN % inhibition @ 10 μM, 10 μM test compound; for IC50: read-out: Human FASN pIC50 (converted). It is filed as biochemical. An outline of the steps:
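Scintillation proximity format: in-house full-length enzyme, 300 ng per well, pH 7.5 phosphate/DTT buffer, ³H-acetyl-CoA and malonyl-CoA. Emission counted on LEADseeker at 610 nm at least 24 h after stopping.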
(In general: In a scintillation proximity assay essentially only radioactivity close to the scintillant gives light.)

The target of assay [4] is Fatty Acid Synthase Keto-reductase Domain (FASN KR) (Homo sapiens, UniProt P49327). The assay is described as follows: Fatty Acid Synthase keto-reductase domain (FASN KR) inhibition, NADPH oxidation at 340 nm.
Sequence of Fatty Acid Synthase Keto-reductase Domain (FASN KR) (P49327 whole entry, the tested form may be a part): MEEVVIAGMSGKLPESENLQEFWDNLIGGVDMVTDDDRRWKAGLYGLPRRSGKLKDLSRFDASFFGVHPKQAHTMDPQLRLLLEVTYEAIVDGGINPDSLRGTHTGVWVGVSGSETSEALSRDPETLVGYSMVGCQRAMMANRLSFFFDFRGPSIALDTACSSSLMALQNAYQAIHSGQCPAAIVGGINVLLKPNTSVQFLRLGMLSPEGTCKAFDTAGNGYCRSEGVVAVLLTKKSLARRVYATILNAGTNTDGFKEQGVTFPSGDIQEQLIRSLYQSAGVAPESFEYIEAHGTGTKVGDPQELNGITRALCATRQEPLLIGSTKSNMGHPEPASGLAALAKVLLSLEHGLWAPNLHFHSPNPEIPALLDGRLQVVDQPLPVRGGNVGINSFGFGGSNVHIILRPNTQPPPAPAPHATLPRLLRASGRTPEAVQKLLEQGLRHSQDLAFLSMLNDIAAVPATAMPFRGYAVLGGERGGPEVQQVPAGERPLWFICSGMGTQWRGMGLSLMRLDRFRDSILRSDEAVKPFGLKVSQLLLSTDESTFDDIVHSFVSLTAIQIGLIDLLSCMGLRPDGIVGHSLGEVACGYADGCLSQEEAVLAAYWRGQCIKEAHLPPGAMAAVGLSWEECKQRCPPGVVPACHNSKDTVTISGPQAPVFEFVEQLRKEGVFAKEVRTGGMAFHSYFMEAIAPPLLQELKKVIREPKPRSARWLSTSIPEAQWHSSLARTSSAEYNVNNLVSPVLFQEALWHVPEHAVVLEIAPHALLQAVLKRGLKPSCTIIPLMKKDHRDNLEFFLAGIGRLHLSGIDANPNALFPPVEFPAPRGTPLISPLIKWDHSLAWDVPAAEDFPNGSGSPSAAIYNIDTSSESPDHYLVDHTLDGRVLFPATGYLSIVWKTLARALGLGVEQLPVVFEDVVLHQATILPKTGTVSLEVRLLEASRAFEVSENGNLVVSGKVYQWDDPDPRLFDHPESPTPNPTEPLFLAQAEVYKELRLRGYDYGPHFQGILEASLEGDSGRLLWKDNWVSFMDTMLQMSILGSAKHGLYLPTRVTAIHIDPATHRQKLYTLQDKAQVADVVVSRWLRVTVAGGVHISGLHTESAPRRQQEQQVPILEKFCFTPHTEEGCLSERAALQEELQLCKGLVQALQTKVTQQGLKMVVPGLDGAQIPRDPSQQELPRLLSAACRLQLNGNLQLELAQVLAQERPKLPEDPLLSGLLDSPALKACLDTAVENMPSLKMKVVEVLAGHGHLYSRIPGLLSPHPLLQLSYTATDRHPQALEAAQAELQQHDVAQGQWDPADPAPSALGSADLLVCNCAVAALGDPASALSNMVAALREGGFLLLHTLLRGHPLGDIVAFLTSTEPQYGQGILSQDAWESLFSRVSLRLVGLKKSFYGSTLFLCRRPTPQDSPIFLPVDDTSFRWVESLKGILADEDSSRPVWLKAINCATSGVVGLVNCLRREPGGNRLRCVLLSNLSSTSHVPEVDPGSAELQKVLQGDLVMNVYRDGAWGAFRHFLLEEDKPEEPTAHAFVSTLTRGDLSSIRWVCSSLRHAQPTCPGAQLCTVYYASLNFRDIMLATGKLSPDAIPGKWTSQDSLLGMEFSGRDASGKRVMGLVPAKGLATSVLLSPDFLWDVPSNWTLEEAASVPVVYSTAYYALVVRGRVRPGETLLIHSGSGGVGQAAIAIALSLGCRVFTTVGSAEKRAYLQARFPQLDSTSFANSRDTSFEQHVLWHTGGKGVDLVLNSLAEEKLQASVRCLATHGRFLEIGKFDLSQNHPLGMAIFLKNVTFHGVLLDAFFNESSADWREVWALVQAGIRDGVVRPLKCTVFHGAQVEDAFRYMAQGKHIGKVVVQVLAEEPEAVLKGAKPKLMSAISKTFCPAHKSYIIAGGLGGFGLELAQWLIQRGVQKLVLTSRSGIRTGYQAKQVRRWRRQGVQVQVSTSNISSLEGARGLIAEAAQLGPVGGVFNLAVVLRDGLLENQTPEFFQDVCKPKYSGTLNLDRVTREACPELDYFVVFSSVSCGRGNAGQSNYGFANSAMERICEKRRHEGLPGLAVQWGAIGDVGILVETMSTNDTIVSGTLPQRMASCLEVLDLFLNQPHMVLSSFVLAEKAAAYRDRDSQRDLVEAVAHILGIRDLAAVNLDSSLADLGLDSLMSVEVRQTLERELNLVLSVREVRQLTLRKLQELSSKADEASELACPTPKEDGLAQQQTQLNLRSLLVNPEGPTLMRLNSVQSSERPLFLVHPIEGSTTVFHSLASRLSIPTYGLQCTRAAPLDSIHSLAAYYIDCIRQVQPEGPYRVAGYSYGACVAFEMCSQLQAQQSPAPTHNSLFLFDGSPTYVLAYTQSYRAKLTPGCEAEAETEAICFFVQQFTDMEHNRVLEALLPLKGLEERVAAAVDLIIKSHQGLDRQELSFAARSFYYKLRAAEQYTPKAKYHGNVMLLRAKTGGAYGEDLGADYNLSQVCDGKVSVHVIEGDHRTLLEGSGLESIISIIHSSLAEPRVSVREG
Description: After 20 minutes incubation at room temperature the plate was measured again (T2).
The decrease in absorbance was calculated as (Absorbance before incubation T1)−(Absorbance following incubation T2).
A plot of Controlmin versus test compound concentration was fitted to a 4-parameter logistic curve using a non-linear least squares regression method.
Assay [5] relates to PC-3M-Luc-C6 prostate cells. Description: In vitro PC-3M-Luc-C6 prostate cell proliferation assay in lipid reduced medium. It is filed as cell-based. The conditions noted are these: 96 h, read-out: pIC50 PC-3M-Luc-C6 prostate cell (converted).
The test system of assay [6] is A2780 ovarian cells. Description: A2780 ovarian cell proliferation assay in lipid reduced medium, with palmitate (MTT). The assay is classed as cell-based. Particulars: Homo sapiens, A2780, 96 h; read-out: pIC50 A2780 Ovarian Cell, With Palmitate (converted). Put shortly:
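In this palmitate-supplemented format, compound dilutions (30 μM down to 0.01 μM) are added to cells in lipid-reduced serum with 25 μM palmitate, 0.2% fatty-acid-free BSA and 0.25% ethanol. After four days (96 h) MTT absorbance at 544 nm is recorded and fitted by minimum sum of squares.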

One may read the inhibition as the change of the read-out against control, counted positive when it falls.

T1 sequence (P49327 whole entry): as the sequence (P49327 whole entry, the tested form may be a part) above

For `O=C(C1CC1)N1CC[C@@H](CN2C(=O)C3(CC3)N=C2c2ccc(-c3cccc4[nH]ncc34)s2)C1` [compound 427, 6-{[(3R)-1-(Cyclopropylcarbonyl)pyrrolidin-3-yl]methyl}-5-[5-(1H-indazol-4-yl)thiophen-2-yl]-4,6-diazaspiro[2.4]hept-4-en-7-one], the IC50 was 832 nM in the assay with A2780 ovarian cells [1]; 2630 nM in assay [2]; 417 nM in assay [3]; 1120 nM in assay [4]; 851 nM in assay [5]; more than 10000 nM with A2780 ovarian cells [6]. Further, the inhibition at 10 µM in assay [3] was 91%.

Take `O=C(C1CC1)N1CC[C@@H](CN2C(=O)C3(CC3)N=C2c2ccc(-c3ccc4cc[nH]c4c3)cn2)C1` [compound 428, 6-{[(3R)-1-(Cyclopropylcarbonyl)pyrrolidin-3-yl]methyl}-5-[5-(1H-indol-6-yl)pyridin-2-yl]-4,6-diazaspiro[2.4]hept-4-en-7-one]: the IC50 with A2780 ovarian cells [1] was approximately 1100 nM; in assay [2] it was 2820 nM; in assay [3] it was 138 nM; in assay [4] it was 589 nM; in assay [5] it was 794 nM; with A2780 ovarian cells [6] it was more than 10000 nM. Also, the inhibition at 10 µM in assay [3] amounted to 101%.

As for `Cc1cc2cc(-c3ccc(C4=NC5(CC5)C(=O)N4CC4CN(C(=O)C5CC5)C4)cc3)ccc2s1` [compound 432, 6-{[1-(Cyclopropylcarbonyl)azetidin-3-yl]methyl}-5-[4-(2-methyl-1-benzothiophen-5-yl)phenyl]-4,6-diazaspiro[2.4]hept-4-en-7-one], the IC50 in the assay on A2780 ovarian cells [1] is 1510 nM; in assay [2], 2040 nM; in assay [3] it was 141 nM; in assay [4], 447 nM; in assay [5], 871 nM; in the assay on A2780 ovarian cells [6], more than 6170 nM. Moreover, the inhibition at 10 µM in assay [3] turned out to be 98%.

For `O=C(C1CC1)N1CC(CN2C(=O)C3(CC3)N=C2c2ccc(-c3ccc4[nH]ccc4c3)c(F)c2)C1` [compound 440, 6-{[1-(Cyclopropylcarbonyl)azetidin-3-yl]methyl}-5-[3-fluoro-4-(1H-indol-5-yl)phenyl]-4,6-diazaspiro[2.4]hept-4-en-7-one], the IC50 in the assay on A2780 ovarian cells [1] is 95.5 nM; in assay [2], 1150 nM; in assay [3] it was 195 nM; in assay [4], 214 nM; in assay [5] it was 234 nM; in the assay on A2780 ovarian cells [6], more than 10000 nM. For the same compound, in assay [3], the inhibition at 10 µM was found to be 97%.

Consider `Cc1cc(C2=NC3(CC3)C(=O)N2C[C@@H]2CCN(C(=O)C3CC3)C2)ccc1-c1ccc2[nH]ncc2c1` [compound 444, 6-{[(3R)-1-(Cyclopropylcarbonyl)pyrrolidin-3-yl]methyl}-5-[4-(1H-indazol-5-yl)-3-methylphenyl]-4,6-diazaspiro[2.4]hept-4-en-7-one], for which the IC50 is approximately 209 nM in the assay on A2780 ovarian cells [1]; 1820 nM in assay [2]; 251 nM in assay [3]; 562 nM in assay [4]; 417 nM in assay [5]; more than 10000 nM with A2780 ovarian cells [6]. Also, the inhibition at 10 µM in assay [3] came to 95%.

Take `Cc1cc(C2=NC3(CC3)C(=O)N2C[C@@H]2CCN(C(=O)C3CC3)C2)ccc1-c1cccc2[nH]ncc12` [compound 445, 6-{[(3R)-1-(Cyclopropylcarbonyl)pyrrolidin-3-yl]methyl}-5-[4-(1H-indazol-4-yl)-3-methylphenyl]-4,6-diazaspiro[2.4]hept-4-en-7-one]: the IC50 in the assay with A2780 ovarian cells [1] is 67.6 nM; in assay [2], 1170 nM; in assay [3], 182 nM; in assay [4], 209 nM; in assay [5], 234 nM; with A2780 ovarian cells [6], more than 10000 nM. The inhibition at 10 µM in assay [3] was 100%.

With `Nc1cc(-c2ccc(C3=NC4(CC4)C(=O)N3C[C@@H]3CCN(C(=O)C4CC4)C3)cc2)ccn1` [compound 452, 5-[4-(2-Aminppyridin-4-yl)phenyl]-6-{[(3R)-1-(cyclopropylcarbonyl)pyrrolidin-3-yl]methyl}-4,6-diazaspiro[2.4]hept-4-en-7-one], the IC50 was 631 nM with A2780 ovarian cells [1]; 2040 nM in assay [2]; 229 nM in assay [3]; 525 nM in assay [4]; 550 nM in assay [5]; more than 10000 nM in the assay on A2780 ovarian cells [6]. Besides, the inhibition at 10 µM in assay [3] was found to be 97%.

On to `O=C(C1CC1)N1CC[C@@H](CN2C(=O)C3(CC3)N=C2c2ccc(-c3ccc4c(c3)COCC4)cc2)C1` [compound 453, 6-{[(3R)-1-(Cyclopropylcarbonyl)pyrrolidin-3-yl]methyl}-5-[4-(3,4-dihydro-1H-2-benzopyran-7-yl)phenyl]-4,6-diazaspiro[2.4]hept-4-en-7-one], for which the IC50 in the assay with A2780 ovarian cells [1] was 2140 nM; in assay [2], 2950 nM; in assay [3], 245 nM; in assay [4], 1120 nM; in assay [5] it was 1620 nM; in the assay on A2780 ovarian cells [6] it was more than 10000 nM. For the same compound, the inhibition at 10 µM in assay [3] was 94%.

For the compound `O=C1Cc2cc(-c3ccc(C4=NC5(CC5)C(=O)N4C[C@@H]4CCN(C(=O)C5CC5)C4)cc3)ccc2N1` [compound 457, 5-[4-(6-{[(3R)-1-(Cyclopropylcarbonyl)pyrrolidin-3-yl]methyl}-7-oxo-4,6-diazaspiro[2.4]hept-4-en-5-yl)phenyl]-1,3-dihydro-2H-indol-2-one], the IC50 in the assay on A2780 ovarian cells [1] was 1260 nM; in assay [2] it was more than 3020 nM; in assay [3] it was 457 nM; in assay [4], 1450 nM; in assay [5], 2190 nM; with A2780 ovarian cells [6], more than 6170 nM. Besides, the inhibition at 10 µM in assay [3] was 91%.

On to `O=C1Cc2ccc(-c3ccc(C4=NC5(CC5)C(=O)N4C[C@@H]4CCN(C(=O)C5CC5)C4)cc3)cc2N1` [compound 461, 6-[4-(6-{[(3R)-1-(Cyclopropylcvarbonyl)pyrrolidin-3-yl]methyl}-7-oxo-4,6-diazaspiro[2.4]hept-4-en-5-yl)phenyl]-1,3-dihydro-2H-indol-2-one], for which the IC50 in the assay with A2780 ovarian cells [1] is approximately 427 nM; in assay [2], approximately 2510 nM; in assay [3], 141 nM; in assay [4], 1170 nM; in assay [5], approximately 603 nM; with A2780 ovarian cells [6], more than 10000 nM. In addition, the inhibition at 10 µM in assay [3] came to 95%.

For `O=C(C1CC1)N1CC[C@@H](CN2C(=O)C3(CC3)N=C2c2ccc(-c3ccc4c(c3)CCO4)cc2)C1` [compound 462, 6-{[(3R)-1-(Cyclopropylcarbonyl)pyrrolidin-3-yl]methyl}-5-[4-(2,3-dihydro-1-benzofuran-5-yl)phenyl]-4,6-diazaspiro[2.4]hept-4-en-7-one], the IC50 was 1860 nM in the assay with A2780 ovarian cells [1]; 2340 nM in assay [2]; 158 nM in assay [3]; 912 nM in assay [4]; 1170 nM in assay [5]; more than 10000 nM in the assay with A2780 ovarian cells [6]. The inhibition at 10 µM in assay [3] was 98%.

Take `N#Cc1cc2cc(-c3ccc(C4=NC5(CC5)C(=O)N4C[C@@H]4CCN(C(=O)C5CC5)C4)cc3F)ccc2o1` [compound 463, 5-[4-(6-{[(3R)-1-(Cyclopropylcarbonyl)pyrrolidin-3-yl]methyl}-7-oxo-4,6-diazaspiro[2.4]hept-4-en-5-yl)-2-fluorophenyl]-1-benzofuran-2-carbonitrile]: the IC50 was approximately 3800 nM in the assay with A2780 ovarian cells [1]; 7240 nM in assay [2]; 224 nM in assay [3]; 977 nM in assay [4]; 1910 nM in assay [5]; more than 10000 nM in the assay on A2780 ovarian cells [6]. Further, the inhibition at 10 µM in assay [3] was found to be 93%.

For `O=C(C1CC1)N1CC[C@@H](CN2C(=O)C3(CC3)N=C2c2ccc(-c3ccc4c(=O)[nH]ccc4c3)cc2)C1` [compound 467, 6-[4-(6-{[(3R)-1-(Cyclopropylcarbonyl)pyrrolidin-3-yl]methyl}-7-oxo-4,6-diazaspiro[2.4]hept-4-en-5-yl)phenyl]isoquinolin-1(2H)-one], the IC50 was 759 nM with A2780 ovarian cells [1]; 2880 nM in assay [2]; 331 nM in assay [3]; 977 nM in assay [4]; 776 nM in assay [5]; more than 10000 nM with A2780 ovarian cells [6]. In assay [3], the inhibition at 10 µM stood at 93%.

Regarding `COc1nccc2cc(-c3ccc(C4=NC5(CC5)C(=O)N4C[C@@H]4CCN(C(=O)C5CC5)C4)cc3)ccc12` [compound 468, 6-{[(3R)-1-(Cyclopropylcarbonyl)pyrrolidin-3-yl]methyl}-5-[4-(1-methoxyisoquinolin-6-yl)phenyl]-4,6-diazaspiro[2.4]hept-4-en-7-one], the IC50 in the assay on A2780 ovarian cells [1] was 661 nM; in assay [2], 2040 nM; in assay [3], 427 nM; in assay [4] it was 1580 nM; in assay [5] it was 550 nM; with A2780 ovarian cells [6] it was more than 10000 nM. For the same compound, the inhibition at 10 µM in assay [3] turned out to be 90%.

Turning to `COc1cc2cc(-c3ccc(C4=NC5(CC5)C(=O)N4C[C@@H]4CCN(C(=O)C5CC5)C4)cc3)ccc2cn1` [compound 470, 6-{[(3R)-1-(Cyclopropylcarbonyl)pyrrolidin-3-yl]methyl}-5-[4-(3-methoxyisoquinolin-6-yl)phenyl]-4,6-diazaspiro[2.4]hept-4-en-7-one], the IC50 in the assay with A2780 ovarian cells [1] was approximately 933 nM; in assay [2], 1480 nM; in assay [3], 182 nM; in assay [4], 115 nM; in assay [5], approximately 631 nM; in the assay on A2780 ovarian cells [6], more than 10000 nM. Moreover, the inhibition at 10 µM in assay [3] worked out at 98%.

For the origin of these results see patent US10077261B2, “Imidazolin-5-one derivative useful as FASN inhibitors for the treatment of cancer” (Janssen Pharmaceutica NV, priority 2012, dated 2018).
